According to PMC3306445 (Journal of Medicinal Chemistry, 2012):

Experiments:
[1] = target: Pseudomonas aeruginosa thymidylate monophosphate kinase (TMK) (Pseudomonas aeruginosa, UniProt Q9HZN8); experiment: Thymidylate kinase kinetic assay; type: biochemical; conditions: for fold improved inhibition over 1: PaTMK IC50 compared with 1; for fold decreased inhibition compared with 17: PaTMK IC50 compared with 17; for fold improved potency over 19: PaTMK IC50 compared with secondary amide 19
[2] = target: TMK; conditions: high binding affinity due to LID loop closure; cited from earlier work

Pseudomonas aeruginosa thymidylate monophosphate kinase (TMK), sequence (Q9HZN8 whole entry): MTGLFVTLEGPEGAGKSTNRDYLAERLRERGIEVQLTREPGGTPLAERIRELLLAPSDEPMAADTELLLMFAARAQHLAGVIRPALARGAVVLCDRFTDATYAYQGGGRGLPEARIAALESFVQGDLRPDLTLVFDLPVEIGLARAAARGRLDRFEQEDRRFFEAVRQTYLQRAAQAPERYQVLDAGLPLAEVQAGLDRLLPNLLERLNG

## Cn1c(=O)[nH]c2ncc(-c3cccc(C#N)c3)cc21 [Compound 14, 3-(1-Methyl-2-oxo-2,3-dihydro-1H-imidazo[4,5-b]pyridin-6-yl)benzonitrile]
[1]
  PaTMK inhibition (in words): inactive

## Cl.Cn1c(=O)[nH]c2ncc(-c3cccc(CN)c3)cc21 [Compound 15, 6-(3-(Aminomethyl)phenyl)-1-methyl-1H-imidazo[4,5-b]pyridin-2(3H)-one hydrochloride]
[1]
  PaTMK inhibition (in words): lack of activity

## Cn1c(=O)[nH]c2ncc(-c3cccc(C(N)=O)c3)cc21 [Compound 17, 3-(1-Methyl-2-oxo-2,3-dihydro-1H-imidazo[4,5-b]pyridin-6-yl)benzamide]
[1]
  fold improved inhibition over 1: 130 fold
[1]; compared with 26 (p-carboxamide)
  fold increase of PaTMK inhibition over 26: ca. 1000 fold

## CNC(=O)c1cccc(-c2cnc3[nH]c(=O)n(C)c3c2)c1 [Compound 19, N-Methyl-3-(1-methyl-2-oxo-2,3-dihydro-1H-imidazo[4,5-b]pyridin-6-yl)benzamide]
[1]
  fold improved inhibition over 1: 30 fold
  fold decreased inhibition compared with 17: 5 fold

## CN(C)C(=O)c1cccc(-c2cnc3[nH]c(=O)n(C)c3c2)c1 [Compound 20, N,N-Dimethyl-3-(1-methyl-2-oxo-2,3-dihydro-1H-imidazo[4,5-b]pyridin-6-yl)benzamide]
[1]
  fold decreased inhibition compared with 17: 240 fold

## Cn1c(=O)[nH]c2ncc(-c3cccc(C(=O)NCC(N)=O)c3)cc21 [Compound 30, N-(2-Amino-2-oxoethyl)-3-(1-methyl-2-oxo-2,3-dihydro-1H-imidazo[4,5-b]pyridin-6-yl)benzamide]
[1]
  fold improved potency over 19: about 2.5 fold

## Cn1c(=O)[nH]c2ncc(-c3cccc(C(=O)NCC(=O)O)c3)cc21 [Compound 31, 2-(3-(1-Methyl-2-oxo-2,3-dihydro-1H-imidazo[4,5-b]pyridin-6-yl)benzamido)acetic acid]
[1]
  fold improved potency over 19: about 2.5 fold

## Cn1c(=O)[nH]c2ncc(-c3cccc(C(=O)NCCCc4ccc(F)cc4)c3)cc21 [Compound 47, N-(3-(4-Fluorophenyl)propyl)-3-(1-methyl-2-oxo-2,3-dihydro-1H-imidazo[4,5-b]pyridin-6-yl)benzamide]
[1]
  fold improved potency over 19: ca. 18 fold

## Cn1c(=O)[nH]c2ncc(-c3cccc(C(=O)NCCCc4c[nH]c5ccccc45)c3)cc21 [Compound 48, N-(3-(1H-Indol-3-yl)propyl)-3-(1-methyl-2-oxo-2,3-dihydro-1H-imidazo[4,5-b]pyridin-6-yl)benzamide]
[1]
  fold improved potency over 19: ca. 18 fold

## Cn1c(=O)[nH]c2ncc(-c3cccc(C(=O)NCC(Cc4ccccc4)C(=O)O)c3)cc21 (centres unmarked) [Compound 53, 2-Benzyl-3-(3-(1-methyl-2-oxo-2,3-dihydro-1H-imidazo[4,5-b]pyridin-6-yl)benzamido)propanoic acid]
[1]
  fold improved potency over 19: ca. 18 fold

## Cn1c(=O)[nH]c2ncc(-c3cccc(C(=O)NCCCc4ccc(C(F)(F)F)cc4)c3)cc21 [Compound 57, 3-(1-Methyl-2-oxo-2,3-dihydro-1H-imidazo[4,5-b]pyridin-6-yl)-N-(3-(4-(trifluoromethyl)phenyl)propyl)benzamide]
[1]
  fold improved potency over 19: ca. 18 fold

## Cc1cn([C@H]2C[C@H](O)[C@@H](COP(=O)(O)OP(=O)(O)OP(=O)(O)OP(=O)(O)OP(=O)(O)OC[C@H]3O[C@@H](n4cnc5c(N)ncnc54)[C@H](O)[C@@H]3O)O2)c(=O)[nH]c1=O [TP5A, P1-(5′-adenosyl)-P5-(5′-thymidyl)pentaphosphate]
[2]
  Kd: 20 nM
